Data as given in PMC2635027 (The Journal of Biological Chemistry, 2009).

Columns and labels:
[1] = tested on: BHK21-tTA/anti-CHC cell line; type: cell-based, hamster; conditions: +tet control cells; peptides 10 μM, Tf 10 μg/ml; 37 °C; confocal microscopy
BHK21 cells = type: cell-based, hamster; conditions: BHK21 cells at 4 °C; 10 μM; confocal microscopy
[2] = tested on: BHK21-tTA/anti-CHC cell line; conditions: absence of tetracycline for 2 days; cited from earlier work

YARAARQARA [PTD4, TAMRA-PTD4 (YARAARQARA)]
vesicular (endocytic) uptake, in words [1]: presence of PTD4-containing vesicles | intracellular fluorescently labeled vesicles, in words (BHK21 cells): not observed

transferrin: transferrin conjugated to Alexa Fluor 633, marker for clathrin-dependent endocytosis
vesicular (endocytic) uptake, in words [1]: internalized at high rates | inhibition of transferrin internalization [2]: 90%
